The source of these data is article PMC9299109 (Iubmb Life, 2021).

The target in test [1] is T1, BoFADS (FAD synthase from Brucella ovis) (Brucella ovis, UniProt A0A0H3AW96).
Test [2] concerns the target T1, BoFADS (FAD synthase from Brucella ovis). Kind of test: biochemical.

Structures are written as SMILES.

T1 sequence (A0A0H3AW96 1-329): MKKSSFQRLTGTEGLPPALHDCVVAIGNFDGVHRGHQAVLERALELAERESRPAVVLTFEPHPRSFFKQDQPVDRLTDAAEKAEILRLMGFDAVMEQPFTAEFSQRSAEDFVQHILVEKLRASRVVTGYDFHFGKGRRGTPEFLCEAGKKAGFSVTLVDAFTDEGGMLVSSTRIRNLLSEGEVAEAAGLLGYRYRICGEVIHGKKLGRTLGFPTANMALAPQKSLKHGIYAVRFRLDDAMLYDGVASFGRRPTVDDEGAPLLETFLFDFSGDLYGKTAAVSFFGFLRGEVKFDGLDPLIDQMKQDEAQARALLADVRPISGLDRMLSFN

In the case of `Nc1ncnc2c1ncn2[C@@H]1O[C@H](COP(=O)(O)OP(=O)(O)O)[C@@H](O)[C@H]1O` [ADP], the “visible difference spectroscopy, FMN titration with ADP” value in test [1] is recorded as “titrated with oxidized FMN in the presence of ADP but not in its absence”.
For the compound `Cc1cc2nc3c(=O)[nH]c(=O)nc-3n(C[C@H](O)[C@H](O)[C@H](O)COP(=O)(O)O)c2cc1C` [FMN, flavin mononucleotide], in test [2], binding was characterised by a dissociation constant (Kd) of 290 ± 100 nM.
For `Cc1cc2nc3c(=O)[nH]c(=O)nc-3n(C[C@H](O)[C@H](O)[C@H](O)CO)c2cc1C` [RF, riboflavin], the Kd in test [2] was determined as 410 ± 60 nM.
